What was measured:
[1] = system: A. flavus; test: Antifungal susceptibility assay (broth microdilution MIC); format: cell-based; details: Aspergillus flavus, 35 °C, 48 h, no observable growth
[2] = system: A. nidulans; test: as above; format: cell-based; details: Aspergillus nidulans, 35 °C, 48 h, no observable growth
[3] = target: CaAHAS (C. albicans AHAS); design: method as in earlier work; details: shown for comparison; ref 13 (Garcia et al.); cited from earlier work
[4] = system: A. niger; test: Antifungal susceptibility assay (broth microdilution MIC); format: cell-based; details: Aspergillus niger, 35 °C, 48 h, no observable growth
[5] = system: A. fumigatus; test: as above; format: cell-based; details: Aspergillus fumigatus; A. fumigatus strain ATCC MYAA 3626, 35 °C, 48 h, no observable growth

| SMILES | MIC [1] [µg/mL] | MIC [2] [µg/mL] | Ki [3] [nM] | MIC [4] [µg/mL] | MIC [5] [µg/mL] |
| --- | --- | --- | --- | --- | --- |
| COC(=O)c1csc(C)c1S(=O)(=O)NC(=O)n1nc(OC)n(C)c1=O [TCM] | > 100 | > 100 | 28000 | > 100 | > 100 |
| CCOc1nc(F)cc2nc(S(=O)(=O)Nc3c(Cl)cccc3C(=O)OC)nn12 [CSM] | > 100 | > 100 | 4.6 ± 1.2 | > 100 | > 100 |
| COc1cc(OC)n2nc(NS(=O)(=O)c3c(C(F)(F)F)ccnc3OC)nc2n1 [PYS] | > 100 | > 100 | 212 ± 18 | > 100 | > 100 |
